Data: US20250170100A1, “MONOACYLGLYCEROL LIPASE INHIBITORS AND USE THEREOF FOR THE TREATMENT OF ANXIETY AND RELATED CONDITIONS” (Psy Therapeutics, Inc., priority 2021, published 2025)
Like-named read-outs stand apart in the source and are kept apart here.

How the values were obtained:
human MAGL [1] = molecular target: T1, human MAGL (Homo sapiens (Human), UniProt Q99685); assay: MAGL reversible inhibition assay (washout); assay type: biochemical; details: for A: degree to which MAGL enzymatic activity returned following washout: pre-washout compound concentration: 1 μM
Protocol: The reversible mechanism of MAGL inhibition of a test compound of Formula (I) can be determined. Flag-tagged MAGL enzyme will be immobilized on anti-Flag beads. Immobilized enzyme will be incubated+/−inhibitor at a dose that produces complete inhibition. Colorimetric substrate (4-NPA) will be added and the reaction monitored on a plate reader for 30 minutes to verify complete inhibition. Immobilized enzyme will then be washed thoroughly to remove the inhibitor, and fresh substrate will be added. The reaction will be monitored for an additional 30 minutes; returning enzymatic activity will indicate reversibility of inhibition.
MAGL enzyme was incubated for 30 minutes in the presence of 40× the IC50 concentration of inhibitor. Enzyme+inhibitor mix was then diluted 40-fold so that the final concentration of the inhibitor equaled the IC50 concentration. Substrate was added and the reaction was monitored for 30 minutes.
Target sequence in this assay (Q99685 whole entry): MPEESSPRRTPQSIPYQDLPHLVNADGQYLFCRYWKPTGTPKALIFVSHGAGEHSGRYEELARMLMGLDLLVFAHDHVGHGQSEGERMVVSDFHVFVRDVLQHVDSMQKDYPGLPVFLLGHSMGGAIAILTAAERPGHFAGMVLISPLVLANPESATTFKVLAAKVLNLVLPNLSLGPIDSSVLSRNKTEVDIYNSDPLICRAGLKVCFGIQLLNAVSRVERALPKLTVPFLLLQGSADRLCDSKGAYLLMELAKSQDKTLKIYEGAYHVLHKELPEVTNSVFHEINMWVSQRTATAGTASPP

human recombinant FAAH = human recombinant FAAH (Homo sapiens (Human), UniProt O00519); assay: FAAH counter screen (Fatty Acid Amide Hydrolase Inhibitor Screening Assay Kit); assay type: biochemical
Protocol: MAGL inhibitor compounds were also counter-screened for FAAH inhibition potency using the following assay. Assessment of FAAH inhibition was performed using Fatty Acid Amide Hydrolase Inhibitor Screening Assay Kit (Cayman Item No. 10005196) following manufacture's instruction with some modifications. The kit utilizes human recombinant FAAH and the fluorescent substrate, AMC Arachidonoyl amide (AAMCA). 5 μL of assay buffer (125 mM Tris, pH 9.0, 1 mM EDTA, i.e. ethylenediaminetetraacetic acid) was added to a 384-well black plate (Corning, 3573). Test compounds and control inhibitor JZL-195 (Cayman Chemical, 13668) were tested in 10-concentration IC50 mode with 3-fold serial dilution at a starting concentration of 100 μM and 10 μM, respectively. 300 nL or 30 nL of test compounds were delivered into a 384-well black plate (Corning, 3573) using a Labcyte Echo, followed by addition of 15 μL of FAAH enzyme (Cayman, 700302) in assay buffer. After a 5-minute pre-incubation at room temperature, 10 μL of AAMCA was added in assay buffer to start the reaction. Final concentration of FAAH enzyme is not specified and AAMCA substrate was used at the 20 μM. After these dilutions, the final concentration of the test compounds ranged from 100 μM to 5.08 nM or 10 μM down to 0.508 nM. The reaction was allowed to progress for 60 minutes, while the plate was read on an Envision plate reader at an Ex/Em of 350/460 nm with readings every minute. The data was analyzed in Microsoft Excel, using the slope between 30 and 59 minutes. The average of the no-enzyme wells (background) was subtracted from the data. The background-subtracted slope data was converted to % activity using the average of wells with enzyme and DMSO vehicle. IC50 values were calculated using GraphPad software (Sigmoidal dose response, variable slope equation).
Compounds listed in Table D2 were tested in the FAAH Counterscreen of Example 19

human MAGL [2] = molecular target: T1, human MAGL; assay: MAGL inhibition potency assay with 4NPA substrate (methods of Table C); assay type: biochemical
Target sequence in this assay (Q99685 2-303): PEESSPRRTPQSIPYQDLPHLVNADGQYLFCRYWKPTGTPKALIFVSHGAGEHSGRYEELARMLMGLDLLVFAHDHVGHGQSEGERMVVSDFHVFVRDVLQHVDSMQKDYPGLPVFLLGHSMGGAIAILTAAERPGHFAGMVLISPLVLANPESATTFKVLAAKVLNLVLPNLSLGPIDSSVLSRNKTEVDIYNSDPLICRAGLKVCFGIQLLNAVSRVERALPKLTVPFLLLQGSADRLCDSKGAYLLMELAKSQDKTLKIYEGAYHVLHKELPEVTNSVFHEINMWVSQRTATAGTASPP

[3] = Plasma and brain concentrations after single intraperitoneal administration of Compound 74; assay type: in vivo, male C57BL/6 mice; details: male, C57BL/6, mouse; for Kp at 0.5 h: brain/plasma, read-out: Brain Plama Ratio (Kp) range
Protocol: (§1) This experiment was performed to determine plasma pharmacokinetics and estimate 2-AG levels in male C57BL/6 mice brain following a single intraperitoneal administration of Compound-74 (Dose: 5, 15, 50 and 150 mg/kg). The experiment was repeated at 150 mg/kg on 3 separate test dates to obtain the data shown in FIG. 1A (plasma and brain concentration of Compound 74 30 minutes after IP injection), and on the first and third test dates to obtain the data shown in FIG. 1B (brain concentration of 2-AG30 minutes after IP injection of Compound 74).
(§2) Study Design: A total of thirty male mice were used into the study and divided in to five groups with six mice in each group (n=6 mice/group/treatment design). Animals in Group 1 to Group 4 were administered intraperitoneally with Compound 74 solution formulation at 5, 15, 50 and 150 mg/kg dose, respectively. Animals in Group 5 were administered intraperitoneally with vehicle at 2 mL/kg dose. Blood and brain samples were collected at 0.5 h post dose. Mice were euthanized by cervical dislocation and brain samples were dissected rapidly and snap frozen in liquid nitrogen, weighed and homogenized in 2 mL of acetonitrile containing 2-AGd5. Blood samples were centrifuged at 4000 rpm for 10 minutes at 4° C. Plasma was harvested and separated in pre-labeled tubes. All samples were stored below −70° C. until bioanalysis.
(§3) Analysis: Brain samples were processed for 2-AG estimation. 2-AG levels were the detected values. Plasma concentrations were determined by fit for purpose LC-MS/MS method. LLOQ: 5.09 ng/mL (Plasma and brain)

human MAGL [4] = molecular target: T1, human MAGL; assay: MAGL inhibition potency assay with 4NPA substrate (methods of Table C); assay type: biochemical; details: Method 1: Reaction Biology MAGL enzyme, 6 nM; read-out: MAGL Potency (Detection Method)
Description: Cayman's Monoacylglycerol Lipase Inhibitor Screening Assay provides a method for screening human MAGL inhibitors. MAGL hydrolyzes 4-nitrophenylacetate resulting in a yellow product, 4-nitrophenol, with an absorbance of 405-412 nm. The monoacylglycerol lipase inhibitor screening assay kit from Cayman Chemical was used to measure the MAGL potency for the compounds in Table 3 and Table 4. Cayman's Monoacylglycerol Lipase Inhibitor Screening Assay provides a method for screening human MAGL inhibitors. MAGL hydrolyzes 4-nitrophenylacetate resulting in a yellow product, 4-nitrophenol, with an absorbance of 405-412 nm. MAGL Inhibition was measured by the following assay. Monoacylglycerol Lipase (MAGL) inhibition was measured using recombinant MAGL enzyme (aa 2-303 RBC, internal preparation) and the substrate 4-Nitrophenyl acetate (4NPA) (Sigma-Aldrich, N8130). Hydrolysis of the substrate in the presence of the enzyme was measured by absorbance at 405 nm. 10 μL of assay buffer (10 mM Tris pH 7.5, 1 mM EDTA, 0.9% DMSO) was added to a black 384-well non-binding plate with clear bottom (Greiner, 781906) for each reaction. […] DMSO control wells were included for reference. A 10.8 nM (1.8×) MAGL mix in assay buffer was prepared, with […] added to each reaction well, for a final assay concentration of 6 nM. No enzyme wells received 25 μL of buffer. Plate was incubated at room temperature for 30 minutes. 35 mM solution of 4NPA in methanol was prepared daily. A 4.5×4NPA substrate solution was prepared in assay buffer and 10 μL was added to each reaction well, for a final assay concentration of 0.25 mM. Plate was spun for 1 minute at 1000 rpm before measuring absorbance using a CLARIOstar plate reader (BMG Labtech). A kinetic reading at 405 nm was done every minute for 30 minutes. Data was analyzed using the linear slope of the reaction progress curve and the average of the no-enzyme wells (background) was subtracted from the data. The background-subtracted slope data was converted to % activity using the average of wells with enzyme and DMSO vehicle. IC50s were calculated using GraphPad software (Sigmoidal dose response, variable slope equation). […] Table 5 provides potency measurements of MAGL inhibition measured using the Potency Assay of Example 18 above, with the following modifications described in Table C. [table]
Target sequence in this assay (Q99685 2-303): as above

2-AG levels in brain = assay: 2-AG estimation in mouse brain after single intraperitoneal administration of Compound 74; assay type: in vivo, male C57BL/6 mice; details: for Mean 2AG Brain Concentration: 0.5 h
Protocol: as §1, §2, §3

[5] = Method A: starting concentration of 100 μM
[6] = Method 2: Cayman Chemical MAGL enzyme, 10 nM, read-out: MAGL Potency (Detection Method)

human recombinant FAAH, sequence (O00519 whole entry): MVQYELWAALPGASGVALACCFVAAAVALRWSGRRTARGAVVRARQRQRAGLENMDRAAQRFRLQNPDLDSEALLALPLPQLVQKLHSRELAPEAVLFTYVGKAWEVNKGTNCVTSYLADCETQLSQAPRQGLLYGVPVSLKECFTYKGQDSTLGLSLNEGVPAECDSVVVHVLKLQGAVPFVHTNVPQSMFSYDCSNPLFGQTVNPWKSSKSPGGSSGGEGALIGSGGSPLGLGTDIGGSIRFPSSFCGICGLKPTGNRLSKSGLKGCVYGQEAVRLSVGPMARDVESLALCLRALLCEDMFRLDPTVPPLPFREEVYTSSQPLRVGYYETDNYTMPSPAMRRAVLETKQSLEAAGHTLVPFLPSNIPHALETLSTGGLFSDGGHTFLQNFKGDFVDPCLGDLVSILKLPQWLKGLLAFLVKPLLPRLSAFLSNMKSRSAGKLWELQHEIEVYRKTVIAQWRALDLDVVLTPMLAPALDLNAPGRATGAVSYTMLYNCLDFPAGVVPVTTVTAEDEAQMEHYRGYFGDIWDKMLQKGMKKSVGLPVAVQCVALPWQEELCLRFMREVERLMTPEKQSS

With `O=C(c1cc(O)ccc1F)N1CC2(CC(n3cc(C4CC4)c(-c4ccccc4F)n3)C2)C1` [Compound 493] the “A: degree to which MAGL enzymatic activity returned following washout” value (from here on “A: degree”) (human MAGL [1]) was 47 and the IC50 (human recombinant FAAH; Method B: starting concentration of 10 μM) was greater than 10 µM.

`Cc1cc(C2CC3(C2)CN(C(=O)c2cccc(O)c2)C3)n(-c2ccccc2C)n1` [Compound 125, (3-hydroxyphenyl)(6-(3-methyl-1-(o-tolyl)-1H-pyrazol-5-yl)-2-azaspiro[3.3]heptan-2-yl)methanone] gave an IC50 (human recombinant FAAH; [5]) greater than 10 µM.

`Cc1cc(C2CC3(C2)CN(C(=O)c2c(F)ccc(O)c2F)C3)n(-c2ccccc2C)n1` [Compound 127, (2,6-difluoro-3-hydroxyphenyl)(6-(3-methyl-1-(o-tolyl)-1H-pyrazol-5-yl)-2-azaspiro[3.3]heptan-2-yl)methanone] showed an IC50 (human recombinant FAAH; [5]) greater than 10 µM.

In the case of “(2-fluoro-5-hydroxyphenyl) (6-(3-methyl-1-(o-tolyl)-1H-pyrazol-5-yl)-2-azaspiro[3.3]hept-5-en-2-yl) methanone [Compound 120]”, the IC50 (human recombinant FAAH; [5]) is reported as greater than 10 µM and the IC50 (human MAGL [2]; [6]) is reported as 0.15 to 0.5 µM.

`Cc1ccccc1-n1nc(C2CC3(C2)CN(C(=O)c2cc(O)ccc2F)C3)cc1C` [Compound 117] showed an IC50 (human recombinant FAAH; [5]) greater than 10 µM.

Work on `Cc1cc(C2CC3(C2)CN(C(=O)c2ccccc2F)C3)n(-c2ccccc2C)n1` [Compound 122, (2-fluorophenyl)(6-(3-methyl-1-(o-tolyl)-1H-pyrazol-5-yl)-2-azaspiro[3.3]heptan-2-yl)methanone] yielded an IC50 (human recombinant FAAH; [5]) greater than 10 µM.

Work on `COc1ccc(F)c(C(=O)N2CC3(CC(c4cc(C)nn4-c4ccccc4C)C3)C2)c1` [Compound 123, (2-fluoro-5-methoxyphenyl)(6-(3-methyl-1-(o-tolyl)-1H-pyrazol-5-yl)-2-azaspiro[3.3]heptan-2-yl)methanone] yielded an IC50 (human recombinant FAAH; [5]) greater than 10 µM and an IC50 (human MAGL [2]; Method 2: Cayman Chemical MAGL enzyme, 10 nM, read-out: Potency (MAGL inhibition)) greater than 10 µM.

With `Cc1cnn(C2CC3(C2)CN(C(=O)c2cc(O)ccc2F)C3)c1-c1cc(F)ccc1Cl` [Compound 519, {6-[5-(2-chloro-5-fluorophenyl)-4-methyl-1-pyrazolyl]-2-aza-2-spiro[3.3]heptyl}(2-fluoro-5-hydroxyphenyl) methanone] the “A: degree” value (human MAGL [1]) was 155.

In the case of `Cc1cc(C2CC3(C2)CN(C(=O)c2cc(O)ccc2F)C3)n(-c2ccccc2C)n1` [Compound 74, (2-fluoro-5-hydroxyphenyl) (6-(3-methyl-1-(o-tolyl)-1H-pyrazol-5-yl)-2-azaspiro[3.3]heptan-2-yl) methanone], the “A: degree” value (human MAGL [1]) is reported as 162, the “B: % MAGL activity returning after washout” value (human MAGL [1]; relative to control, immediately following a 30 minute washout) is reported as greater than 50% and the concentration at 0.5 h ([3]; brain, IP 5 mg/kg, read-out: Brain concentration range) is reported as 16 to 19 ng/g. The concentration at 0.5 h ([3]; brain, IP 15 mg/kg, read-out: Brain concentration range) was 25 to 67 ng/g, the concentration at 0.5 h ([3]; brain, IP 50 mg/kg, read-out: Brain concentration range) was 34 to 1250 ng/g and the concentration at 0.5 h ([3]; brain, IP 150 mg/kg, read-out: Brain concentration range) was 2410 to 12100 ng/g. For the same molecule, the Kp at 0.5 h ([3]; IP 5 mg/kg) was 0.51 to 0.68, the Kp at 0.5 h ([3]; IP 15 mg/kg) was 0.16 to 0.44 and the Kp at 0.5 h ([3]; IP 50 mg/kg) was 0.06 to 0.08. The Kp at 0.5 h ([3]; IP 150 mg/kg) was 0.07 to 0.2, the concentration at 0.5 h ([3]; plasma, IP 5 mg/kg, read-out: Plasma concentration range) was 12 to 186 ng/mL and the concentration at 0.5 h ([3]; plasma, IP 15 mg/kg, read-out: Plasma concentration range) was 70 to 414 ng/mL. The concentration at 0.5 h ([3]; plasma, IP 50 mg/kg, read-out: Plasma concentration range) was 447 to 14900 ng/mL, the concentration at 0.5 h ([3]; plasma, IP 150 mg/kg, read-out: Plasma concentration range) was 34900 to 70300 ng/mL and the IC50 (human MAGL [4]) was less than 0.05 µM. The “Mean 2AG Brain Concentration” value (2-AG levels in brain; IP 5 mg/kg) was 13.13 nmol/g, the “Mean 2AG Brain Concentration” value (2-AG levels in brain; IP 15 mg/kg) was 13.46 nmol/g and the “Mean 2AG Brain Concentration” value (2-AG levels in brain; IP 50 mg/kg) was 42.35 nmol/g. The “Mean 2AG Brain Concentration” value (2-AG levels in brain; IP 150 mg/kg) was 120.02 nmol/g, the “levels of 2-AG compared to baseline (vehicle treatment)” value (2-AG levels in brain; IP 5 and 15 mg/kg dose) was “elevated slightly” and the “levels of 2-AG compared to baseline (vehicle treatment)” value (2-AG levels in brain; IP 50 and 150 mg/kg dose groups) was “significant increase”. For the same molecule, the IC50 (human MAGL [2]; [6]) was less than 0.05 µM, the IC50 (human MAGL [2]; Method 3: Reaction Biology MAGL enzyme, 10 nM, read-out: MAGL Potency (Detection Method)) was less than 0.05 µM and the IC50 (human MAGL [2]; Method 4: Cayman Chemical MAGL enzyme, 15 nM, read-out: MAGL Potency (Detection Method)) was 0.05 to 0.15 µM. The IC50 (human MAGL [2]; Method 5: Cayman Chemical MAGL enzyme, 25 nM, read-out: MAGL Potency (Detection Method)) was less than 0.05 µM.
